Some test systems named below: KM12; HCT-116; SR; SF-539; NCI-H23; SK-MEL-2; LOX IMVI; RXF 393; UO-31; SF-295; HOP-62; OVCAR-4; HL-60; NCI-H226; COLO 205; SF-268; CAKI-1.
Common to all, as to assay: NCI-60 cell line screen, 48 h

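Compound exposure: 48 hours, 5 concentrations, 96-well plates. Here, GI50 denotes the concentration required for 50% inhibition of growth.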 Calls of active or inactive are those of the source. Cut-off read from the data, not from the text of the source: active = GI50 up to about 1.1 µM and inactive = higher. Some results are limits rather than exact numbers.

Regarding `CC[P+](C)(Cc1ccccc1)c1ccccc1` (configuration not stated), the GI50 in the test with KM12, with HCT-116, with SR, in the test on SF-539, with NCI-H23 and with SK-MEL-2 was > 100 µM (inactive) in each case. In addition, the GI50 in the test with LOX IMVI, with RXF 393, in the test on UO-31, in the test on SF-295, with HOP-62 and with OVCAR-4 was > 100 µM (inactive) throughout. The results for the GI50 with HL-60, in the test on NCI-H226 and in the test with COLO 205 were 90.8 µM (inactive), > 100 µM (inactive) and 69.5 µM (inactive), respectively.
Consider `CC(=O)c1cccc(C)c1C(=O)O`, for which the GI50 in the test with KM12, in the test on HCT-116, in the test with SR, in the test on NCI-H23, with SF-268 and in the test on SK-MEL-2 was > 100 µM (inactive) in each case. For the same compound, the GI50 with LOX IMVI, in the test with CAKI-1, in the test on RXF 393, in the test with UO-31, in the test with SF-295 and in the test with HOP-62 was > 100 µM (inactive) throughout. Further, the GI50 with OVCAR-4, in the test on HL-60, in the test with NCI-H226 and with COLO 205 was > 100 µM (inactive) each time.
Regarding `O=C1C=C(c2ccccc2)NC1(c1ccccc1)c1cc(-c2ccccc2)[nH]c1-c1ccccc1` (configuration not stated), the GI50 with KM12, with HCT-116, in the test with SR, with SF-539, with NCI-H23 and in the test on SK-MEL-2 was > 100 µM (inactive) in each case. Also, the GI50 in the test on CAKI-1 was > 100 µM (inactive); in the test on RXF 393, 0.182 µM (active); in the test on UO-31, > 100 µM (inactive); in the test on SF-295 it was > 100 µM (inactive); in the test with HOP-62, 2.21 µM (inactive); with OVCAR-4 it was > 100 µM (inactive). Besides, the GI50 in the test with HL-60 and with COLO 205 was > 100 µM (inactive) each time.
As to `CCCCOC(=O)/C(CC(=O)C=C(C)C)=N\NS(=O)(=O)c1ccc(C)cc1`, the GI50 in the test with KM12 is > 100 µM (inactive); in the test on HCT-116, > 100 µM (inactive); with SR, 27.7 µM (inactive); in the test with SF-539, > 100 µM (inactive); with NCI-H23, > 100 µM (inactive); with SF-268, > 100 µM (inactive). The GI50 is > 100 µM (inactive) in the test with SK-MEL-2; 71.3 µM (inactive) in the test on LOX IMVI; > 100 µM (inactive) in the test with CAKI-1; > 100 µM (inactive) in the test on RXF 393; > 100 µM (inactive) in the test with UO-31; > 100 µM (inactive) in the test on SF-295. Also, the GI50 in the test with HOP-62 is > 100 µM (inactive); with OVCAR-4, > 100 µM (inactive); in the test with HL-60, > 100 µM (inactive); in the test with NCI-H226 it was > 100 µM (inactive); in the test with COLO 205 it was 46.1 µM (inactive).
For the compound `O=C(OCc1ccccc1)c1ccccc1-c1c2ccc(=O)cc-2oc2cc(OCc3ccccc3)ccc12`, the GI50 in the test with KM12 was 12.7 µM (inactive); in the test with HCT-116 it was 9.46 µM (inactive); in the test on SR it was 4.49 µM (inactive); in the test with SF-539, 13.6 µM (inactive); with NCI-H23 it was 10.4 µM (inactive); in the test with SF-268, 14.1 µM (inactive). Moreover, the GI50 was 18.7 µM (inactive) in the test with SK-MEL-2; 6.43 µM (inactive) in the test on LOX IMVI; 5.22 µM (inactive) in the test on CAKI-1; 14.4 µM (inactive) in the test on RXF 393; 6.12 µM (inactive) in the test on UO-31; 17.2 µM (inactive) with SF-295. Also, the GI50 in the test on OVCAR-4 is 13.5 µM (inactive); with HL-60, 5.48 µM (inactive); with NCI-H226, 11.6 µM (inactive); with COLO 205 it was 18.6 µM (inactive).
As to `Cn1c(=O)c2c(nc(C[N+]3([O-])CCOCC3)n2C)n(C)c1=O`, the GI50 is > 100 µM (inactive) in the test on KM12; 7.98 µM (inactive) with HCT-116; > 100 µM (inactive) with SR; > 100 µM (inactive) with SF-539; > 100 µM (inactive) in the test with NCI-H23; > 100 µM (inactive) in the test on SF-268. In addition, the GI50 with SK-MEL-2 is > 100 µM (inactive); in the test with LOX IMVI, > 100 µM (inactive); with CAKI-1 it was 36.9 µM (inactive); with RXF 393, > 100 µM (inactive); in the test on UO-31, > 100 µM (inactive); with HOP-62, > 100 µM (inactive). Further, the GI50 in the test on HL-60, in the test with NCI-H226 and in the test on COLO 205 was > 100 µM (inactive) throughout.
Consider `O=C(O)c1ccc(Nc2nc3nn(Cc4ccccc4)cc3c(=O)s2)cc1`, for which the GI50 with KM12, in the test on HCT-116, in the test on SR, with SF-539, in the test on NCI-H23 and with SF-268 was > 100 µM (inactive) throughout. Besides, the GI50 in the test with SK-MEL-2, in the test with LOX IMVI, with RXF 393, in the test on UO-31, in the test with SF-295 and in the test with HOP-62 was > 100 µM (inactive) throughout. The GI50 with HL-60 and with COLO 205 was > 100 µM (inactive) in each case.
For the compound `Cc1ccc(C2OC(COCc3ccc(Cl)cc3)C(OCc3ccc(Cl)cc3)C2O)cc1` (configuration not stated), the GI50 with KM12 is 9.38 µM (inactive); with HCT-116, 11.5 µM (inactive); in the test with SR, 3.22 µM (inactive); with SF-539 it was 16 µM (inactive); in the test with NCI-H23 it was 6.44 µM (inactive); with SK-MEL-2, 11.1 µM (inactive). The GI50 is 11.4 µM (inactive) in the test with CAKI-1; 3.19 µM (inactive) in the test on RXF 393; 6.76 µM (inactive) with UO-31; 12.3 µM (inactive) with SF-295; 17.8 µM (inactive) in the test on OVCAR-4; 1.36 µM (inactive) in the test with NCI-H226. Further, the GI50 with COLO 205 is 22.8 µM (inactive).
As to `OC(c1ccccc1Br)(c1ccccc1Br)C(F)(F)F`, the GI50 in the test with KM12 was 15.6 µM (inactive); in the test with HCT-116, 19.7 µM (inactive); with SR, 24.6 µM (inactive); in the test with SF-539, 33.2 µM (inactive); with NCI-H23, 27.9 µM (inactive); with SF-268, 20.9 µM (inactive). Further, the GI50 in the test with SK-MEL-2 was 18.5 µM (inactive); with LOX IMVI, 20.9 µM (inactive); in the test with CAKI-1, 48.1 µM (inactive); in the test with RXF 393, 19.6 µM (inactive); with UO-31 it was 26.7 µM (inactive); with SF-295 it was 21.1 µM (inactive). The GI50 with HOP-62 is 28 µM (inactive); with OVCAR-4, 29.2 µM (inactive); in the test with NCI-H226, 10.9 µM (inactive); in the test with COLO 205 it was 18.2 µM (inactive).
Take `OCC(O)C(OC1OC(CO)C(O)C(O)C1O)c1nn(-c2ccc(Cl)cc2)c2nc3cc(Cl)ccc3nc12` (configuration not stated): the GI50 in the test on KM12, with HCT-116, in the test on SR, with SF-539, with NCI-H23 and in the test on SF-268 was > 100 µM (inactive) in each case. The GI50 in the test on LOX IMVI, with RXF 393, in the test with UO-31, in the test with SF-295, with HOP-62 and in the test with OVCAR-4 was > 100 µM (inactive) throughout.
As for `Oc1cccc(C2SCc3nc4ccccc4n32)c1` (configuration not stated), the GI50 with KM12 was 73.3 µM (inactive); in the test on HCT-116, 67.9 µM (inactive); in the test with SR, 48.8 µM (inactive); in the test on SF-539 it was > 100 µM (inactive); with NCI-H23, 38.8 µM (inactive); in the test with SF-268 it was 73.6 µM (inactive). The GI50 in the test with SK-MEL-2 was 76 µM (inactive); with CAKI-1 it was 58.2 µM (inactive); with RXF 393, 78.7 µM (inactive); in the test with UO-31, 35.6 µM (inactive); with SF-295, 39.1 µM (inactive); with HL-60, 25.5 µM (inactive). Further, the GI50 in the test on NCI-H226 was 21.2 µM (inactive); in the test on COLO 205 it was > 100 µM (inactive).
With `CC(=O)O[C@]12CCCCCC1C1(O)C(O)CCCCC12` (some centres not stated), the GI50 in the test on KM12, in the test on SR, in the test on NCI-H23, in the test with SF-268, with SK-MEL-2 and in the test on LOX IMVI was > 100 µM (inactive) each time. The GI50 in the test with RXF 393, in the test with UO-31, in the test on SF-295, in the test on HOP-62, in the test with OVCAR-4 and in the test on HL-60 was > 100 µM (inactive) in each case. The GI50 in the test with NCI-H226 and in the test with COLO 205 was > 100 µM (inactive) in each case.
Take `O=c1c(O)c(-c2ccc(O)c(O)c2)oc2cc(O)ccc12` [FISETIN]: the GI50 in the test on KM12 was 5.62 µM (inactive); with HCT-116, 16.3 µM (inactive); with SR it was 18 µM (inactive); in the test on SF-539 it was 12 µM (inactive); in the test with NCI-H23, 11.6 µM (inactive); in the test with SF-268 it was 24.9 µM (inactive). Also, the GI50 in the test with SK-MEL-2 is 8.75 µM (inactive); with LOX IMVI it was 13.6 µM (inactive); in the test with RXF 393, 23.9 µM (inactive); in the test on UO-31, 14.5 µM (inactive); in the test with SF-295 it was 18.5 µM (inactive); in the test with HOP-62, 20.2 µM (inactive). Further, the GI50 was 31 µM (inactive) in the test with OVCAR-4, 28.7 µM (inactive) with HL-60, 9.79 µM (inactive) in the test with NCI-H226 and 47.4 µM (inactive) in the test on COLO 205.
